{
  "source": "patent US7771978B2",
  "about": "“β1,4mannosyltransferases” (priority 2003, dated 2010)",
  "molecules": {"B1": {"name": "egghead: GDP-D-mannose: β-D-glucose-R 4-β-D-mannosyltransferase, SEQ ID NO. 1 (protein)", "chain": "MNSTTKHLLHCTLLITVIVTFEVFSGGIKIDENSFTLVDPWTEYGQLATVLLYLLRFLTLLTLPQVLFNFCGLVFYNAFPEKVVLKGSPLLAPFICIRVVTRGDFPDLVKTNVLRNMNTCLDTGLENFLIEVVTDKAVNLSQHRRIREIVVPKEYKTRTGALFKSRALQYCLEDNVNVLNDSDWIVHLDEETLLTENSVRGIINFVLDGKHPFGQGLITYANENVVNWLTTLADSFRVSDDMGKLRLQFKLFHKPLFSWKGSYVVTQVSAERSVSFDNGIDGSVAEDCFFAMRAFSQGYTFNFIEGEMYEKSPFTLLDFLQQRKRWLQGILLVVHSKMIPFKHKLLLGISVYSWVTMPLSTSNIIFAALYPIPCPNLVDFVCAFIAAINIYMYVFGVIKSFSLYRFGLFRFLACVLGAVCTIPVNVVIENVAVIWGLVGKKHKFYVVQKDVRVLETV", "modifications": "Drosophila melanogaster"}},
  "key": {"[1]": {"biological_target": "T1, Egghead β1-4-mannosyltransferase (Drosophila melanogaster, UniProt O01346)", "T1 construct": "a secreted version of egghead was prepared as described for the full length construct; made in house; host or cells: baculovirus-infected Sf9 and High Five insect cells (microsomal fractions)", "T1 sequence (O01346 1-457)": "B1 chain", "assay": "Egghead transfer of Man to glycosphingolipid acceptors (thin-layer chromatography/autoradiography)", "format": "biochemical", "conditions": "GDP-Man donor; microsomal fraction; 4 h", "protocol": "Microsomal fraction of egghead (Egh) and GalNAc-T4 (GT4) were incubated with Glcβ1-1Cer, LacCer, or no glycolipid and GDP-Man as described in Experimental Procedures. Autoradiography of thin-layer chromatography of reaction products (4 h). Plate was run in chloroform-methanol-water (60/38/10, v/v/v). Migration of standard glycolipids is indicated with arrows.\nGlycosphingolipids of the fruit fly are based on the arthroseries GlcNAcβ1-3Manβ1-4Glcβ1-1 Cer core. […] Evidence in support hereof was provided by showing that brainiac utilizes the product formed by egghead (FIG. 5). This assay was carried out with n-octyl-β-Glc as initial acceptor substrate because it served as a better substrate than GlcCer under the assay conditions used.\nAn expression construct of the full coding region of egghead was prepared by RT-PCR using D. melanogaster mRNA and the sense primer Egh001 (5′-[…]-3′, SEQ ID NO: 4) with a BglII restriction site and the anti-sense primer Egh002 (5′-[…]-3′, SEQ ID NO: 5) with a XbaI restriction site. The resulting 1.1 Kb fragment was cloned into the BglII/XbaI sites of pVL1393 (PharMingen) and pVL1393-MYC. Furthermore an expression construct for a secreted version of egghead was prepared as described for the full length construct but using sense primer Egh003 (5′[…]-3′, SEQ ID NO: 6) with a BglII restriction site and the anti-sense primer Egh002. The resulting 1 Kb fragment was cloned into pAcGP67 Baculo-virus expression vector. Expression constructs pVL-egghead-full and pVL-egghead-Myc-full and pAcGP67-egghead-sol were co-transfected with Baculo-Gold™ DNA (Pharmingen) in Sf9 cells as described (12). […] Pellets were used at 10 mg/ml (Protein concentration determined by BCA, Pierce). Reaction products of soluble acceptors were quantified by chromatography on Dowex AG1-X8 (Sigma). Assays with glycosphingolipids included 5 mM 2-Acetamido-2-deoxy-D-Glucono-1,5-lactone (inhibitor of hexosaminidase activity), and products were purified on octadecyl-silica cartridges (Supelco) and analyzed by high performance thin-layer chromatography followed by autoradiography."}, "[2]": {"biological_target": "T1, Egghead β1-4-mannosyltransferase", "assay": "Egghead mannosyltransferase enzyme assay with soluble acceptor and donor substrates (microsomal fractions)", "format": "biochemical", "conditions": "microsomal membranes", "protocol": "Initial assays of activity included a screen with high concentrations of monosaccharide substrates and different donor substrates.\nAn expression construct of the full coding region of egghead was prepared by RT-PCR using D. melanogaster mRNA and the sense primer Egh001 (5′-[…]-3′, SEQ ID NO: 4) with a BglII restriction site and the anti-sense primer Egh002 (5′-[…]-3′, SEQ ID NO: 5) with a XbaI restriction site. The resulting 1.1 Kb fragment was cloned into the BglII/XbaI sites of pVL1393 (PharMingen) and pVL1393-MYC. Furthermore an expression construct for a secreted version of egghead was prepared as described for the full length construct but using sense primer Egh003 (5′[…]-3′, SEQ ID NO: 6) with a BglII restriction site and the anti-sense primer Egh002. The resulting 1 Kb fragment was cloned into pAcGP67 Baculo-virus expression vector. Expression constructs pVL-egghead-full and pVL-egghead-Myc-full and pAcGP67-egghead-sol were co-transfected with Baculo-Gold™ DNA (Pharmingen) in Sf9 cells as described (12). Control constructs included pVL-GalNAc-T4-full (8) and pVL-brainiac-full (7). Standard enzyme assays were performed in 50 μl reaction mixtures containing 25 mM HEPES-KOH (pH 7.4), 10 mM MgCl2, 0.1% n-octylgalactoside (Sigma), and 100 μM GDP-[^14C]-Man (2,000 cpm/nmol) (Amersham), and varying concentration of acceptor substrates (purchased from Fluka, Merck, Sigma and Toronto Research Chemicals Inc; see Table I for structures). Assays with brainiac were carried out in the same reaction mixture except for addition of UDP-[^14C]GlcNAc (3,000 cpm/nmol) (Amersham) and MnCl2. Enzyme sources were microsomal fractions of baculo-virus infected Sf9 and High Five™ cells prepared essentially as described by Weis et al. (1998). Briefly, cells were lysed in lysis buffer (25 mM Tris-HCl pH 7.4, 250 mM Sucrose), after incubation 30 min on ice cells were homogenized and lysate centrifuged at 1000×G. Glycerol were added to 20% and membrane pellets were obtained by 100.000×g. Pellets were used at 10 mg/ml (Protein concentration determined by BCA, Pierce). Reaction products of soluble acceptors were quantified by chromatography on Dowex AG1-X8 (Sigma). Assays with glycosphingolipids included 5 mM 2-Acetamido-2-deoxy-D-Glucono-1,5-lactone (inhibitor of hexosaminidase activity), and products were purified on octadecyl-silica cartridges (Supelco) and analyzed by high performance thin-layer chromatography followed by autoradiography."}},
  "data": [
    {"molecule": "Galβ1-1Cer", "values": [
      {"measurement": "glycosphingolipid as acceptor substrate of egghead (in words)", "setting": "[1]", "value": "not to serve as a substrate"}
    ]},
    {"molecule": "Glcβ1-1Cer", "values": [
      {"measurement": "glycosphingolipid as acceptor substrate of egghead (in words)", "setting": "[1]", "value": "utilizes"}
    ]},
    {"molecule": "Galβ1-4Glcβ1-Cer [LacCer]", "values": [
      {"measurement": "glycosphingolipid as acceptor substrate of egghead (in words)", "setting": "[1]", "value": "does not serve as substrate"}
    ]},
    {"molecule": "B1", "values": [
      {"measurement": "pH optimum of egghead activity", "setting": "[2]", "value": "7-8 pH"}
    ]}
  ]
}
